Laboratory results taken from patent publication US12569563B2, “Selective HDAC6 degraders and methods of use thereof” (DANA-FARBER CANCER INSTITUTE, INC., priority 2019, dated 2026).

Tests used:
HDAC10 = molecular target: T1, HDAC10 (Homo sapiens, UniProt Q969S8); experiment: HDAC assay from Reaction Biology, fluorogenic substrate; assay type: biochemical; conditions: 10-dose response curve; read-out: Compound IC50 HDAC10
T1 construct: purchased Reaction Biology
T1 sequence (Q969S8 1-669): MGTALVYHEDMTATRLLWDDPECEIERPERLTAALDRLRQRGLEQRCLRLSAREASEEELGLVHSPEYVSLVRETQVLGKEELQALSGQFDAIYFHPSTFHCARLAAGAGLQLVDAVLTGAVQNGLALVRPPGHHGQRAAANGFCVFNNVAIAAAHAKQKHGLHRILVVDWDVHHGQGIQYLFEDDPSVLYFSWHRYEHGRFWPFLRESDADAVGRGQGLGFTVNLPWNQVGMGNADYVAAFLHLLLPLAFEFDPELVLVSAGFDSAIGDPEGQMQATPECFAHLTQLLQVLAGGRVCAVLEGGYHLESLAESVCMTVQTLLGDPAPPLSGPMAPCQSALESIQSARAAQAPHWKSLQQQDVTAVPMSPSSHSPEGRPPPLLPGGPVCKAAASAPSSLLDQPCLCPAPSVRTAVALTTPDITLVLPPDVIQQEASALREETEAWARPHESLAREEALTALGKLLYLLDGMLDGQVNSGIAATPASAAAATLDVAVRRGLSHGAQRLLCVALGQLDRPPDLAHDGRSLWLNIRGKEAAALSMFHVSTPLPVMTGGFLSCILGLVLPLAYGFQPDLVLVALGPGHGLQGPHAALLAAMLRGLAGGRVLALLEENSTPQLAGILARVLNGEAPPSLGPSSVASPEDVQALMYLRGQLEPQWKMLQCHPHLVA
Procedure: Compounds 1 and 3 were tested in a HDAC assay from Reaction Biology® against 10 different HDACs.
Base Reaction buffer: 50 mM Tris-HCl, pH8.0, 137 mM NaCl, 2.7 mM KCl, and 1 mM MgCl2,
Add fresh: 1 mg/ml BSA, 1% DMSO
Fluorogenic HDAC General Substrate (HDAC1, HDAC2, HDAC3, HDAC6, HDAC10, and HDAC11): 50 μM, Arg-His-Lys-Lys(Ac)-AMC
• (HDAC8 only substrate: 50 μM, Arg-His-Lys(Ac)-Lys(Ac))-AMC Class2A Substrate (HDAC4, HDAC5, HDAC7, and HDAC9): Boc-Lys(trifluoroacetyl)-AMC For SIRTs 1-3, general Class1 HDAC substrate and 500 μM NAD+ For SIRT5, Ac-Lys-succ and 500 μM NAD+ Reaction Procedure Deacetylation Step • 1. Delivered 2× enzyme in wells of reaction plate except in the control wells and added buffer to control wells. • 2. Delivered compounds in 100% DMSO into the enzyme mixture by Acoustic technology (Echo550; nanoliter range). Spin down and pre-incubation. • 3. Delivered 2× Substrate Mixture (Fluorogenic HDAC Substrate and co-factor if applicable) in all reaction wells to initiate the reaction. Spin and shake. • 4. Incubated for 30 min for Class 2A, 1 hr for HDAC1, 2, 3, and 6, and 2 hr for the rest of HDACs and SIRTs at 30° C. with seal. Development Step • 5. Added Developer with Trichostatin A (or Nicotinamide for SIRTs) to stop the reaction and to generate fluorescent color. • 6. The fluorescence that was generated was detected with excitation (Ex) at […] and emission (Em) at 460 nM by the EnVision Multilabel Plate Reader (PerkinElmer®, Santa Clara, CA, USA). • 7. IC50 values, presented in Table 1, were derived from a 10-dose response curve.

CRBN = molecular target: T2, CRBN (Homo sapiens, UniProt Q96SW2); experiment: Cellular CRBN engagement assay (competition with dBET6, BRD4BD2-eGFP reporter); assay type: cell-based; conditions: Flip-In 293 BRD4BD2-eGFP cells, 100 nM dBET6, 5 h
T2 construct: endogenous in cells; host or cells: Flp-In 293 cells stably expressing BRD4BD2-eGFP-P2A-mCherry
Description: The cellular CRBN engagement assay measures the cellular binding affinity which is the combination of the compound's cell permeability and their binding affinity to CRBN. This is done by measuring the ability of thalidomide-based degrader molecules to compete with pan-BET bromodomain degrader dBET6 (Nowak et al., Nat. Chem. Biol. 14:706-714 (2018)) for CRBN binding in cells. If no degrader compound is present in the cell, BRD4BRD2-eGFP is degraded by dBET6 via the proteasome system. […]
Cells were seeded at 30-50% confluency in either 24, 48 or 96 well plates (3524, 3548, 3596 respectively, Costar) a day before compound treatment. The inventive compounds were titrated in the presence of 100 nM dBET6 and then were incubated with cells for 5 h following trypsinization and resuspension in DMEM media, transferred into 96-well plates (353910, Falcon®) and analyzed by flow cytometer (Guava® easyCyte™ HT, Millipore®). Signal from at least 3000 events per well was acquired and the eGFP and mCherry florescence monitored. Data was analyzed using FlowJo® (FlowJo®, LCC). Forward and side scatter outliers, frequently associated with cell debris, were removed leaving >90% of total cells, followed by removal of eGFP and mCherry signal outliers, leaving 88-90% of total cells creating the set used for quantification. […]

- IC50 (HDAC10): 6.58 µM
- IC50 (CRBN): 1630 nM
Compound: CN(C(=O)CCCCCCCNc1cccc2c1C(=O)N(C1CCC(=O)NC1=O)C2=O)c1ccc(NC(=O)CCCCCCC(=O)NO)cc1 (centres unmarked) [Compound 3, N^1-(4-(8-((2-(2,6-dioxopiperidin-3-yl)-1,3-dioxoisoindolin-4-yl)amino)-N-methyloctanamido)phenyl)-N^8-hydroxyoctanediamide]
